The values that follow come from patent publication US9533977B2, “Oxazolidinone derivative as CETP inhibitor, its preparation method, and pharmaceutical composition comprising the same” (DONG-A ST CO., LTD., priority 2013, dated 2017).

What is called IC50 is the midpoint of a concentration-inhibition curve.

Series [1] can be described thus: Drug concentration in blood and tissues of hamsters administered with multiple doses. The following applies: oral 10 mg/kg every day for two weeks; for concentration at 2 h: male, Golden Syrian, hamster, two hours after the final administration. The series is classed as in vivo, Golden Syrian Hamsters. The procedure: (§1) Each of the compounds of Examples 58, 96, 103 and 125 was orally administered at a dose of 10 mg/kg to 10 7-week-old male Golden Syrian Hamsters per group, every day for two weeks. Two hours after the final administration, blood samples were taken from the hamsters which then underwent an autopsy to analyze blood lipid levels and drug concentrations in blood and tissues (adipose tissues and liver)

The next series deals with Blood HDL-C. Put plainly: Blood HDL-C level in multi-dosed hamsters. The series is classed as in vivo, Golden Syrian Hamsters. To be noted: oral 10 mg/kg every day for two weeks, blood two hours after the final administration. Here is the method: as §1
Series [2] has as its target T1, CETP (Homo sapiens, UniProt P11597).
T1 construct: from tissue; host or cells: human plasma from healthy men
T1 sequence (P11597 18-493): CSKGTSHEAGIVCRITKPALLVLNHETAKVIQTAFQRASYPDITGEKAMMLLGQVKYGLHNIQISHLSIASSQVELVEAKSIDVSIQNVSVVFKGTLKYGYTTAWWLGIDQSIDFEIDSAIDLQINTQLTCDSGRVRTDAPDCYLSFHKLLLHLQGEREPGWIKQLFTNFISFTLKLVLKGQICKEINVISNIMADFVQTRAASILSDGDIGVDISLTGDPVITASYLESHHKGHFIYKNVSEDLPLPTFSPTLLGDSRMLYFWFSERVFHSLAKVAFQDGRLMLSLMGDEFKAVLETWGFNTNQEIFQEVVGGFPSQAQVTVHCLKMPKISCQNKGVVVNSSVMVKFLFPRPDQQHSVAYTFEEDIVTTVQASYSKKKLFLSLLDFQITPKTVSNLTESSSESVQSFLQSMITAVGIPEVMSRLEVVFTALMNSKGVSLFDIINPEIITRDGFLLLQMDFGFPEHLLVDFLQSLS
Put plainly: Inhibitory activity against CETP in human plasma (Roar CETP activity kit, fluorescence). It counts as biochemical. The following applies: plasma from healthy men diluted 1:10 in assay buffer, 37° C., 3 hrs, fluorescence 465/535 nm; read-out: IC50, Inhibition of CETP Activity in Human Plasma. An outline of the steps: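 Healthy male human plasma, diluted 1:10, incubated 3 hrs at 37° C with donor/acceptor fluorescent substrates and compound (0.01–10000 nM, DMSO). Fluorescence at ex 465/em 535 nm, background-corrected against no-plasma and no-compound wells; IC50 from sigmoidal fit.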

Series [3] has as its system CETP. Put plainly: Effect on CETP activity in hamster administered with single dose. The following applies: hamsters, single oral dose 100 mg/kg, blood 0.5-24 hrs after administration, compared to pre-treatment. It counts as in vivo, Golden Syrian hamsters. Here is the method:
Each of the compounds of the Examples was orally administered at a dose of 100 mg/kg to three 7-week-old male Golden Syrian hamsters per group. Blood samples were taken from the retro-orbital plexus before administration and 0.5, 1, 2, 4, 6, 8, and 24 hrs after administration, and measured for blood CETP activity using a Roar CETP activity assay kit (Cat#: RB-CETP, Roar Biomedical Inc.).

Read-outs that look alike come from different tables or passages of the source.

Turning to `CCN(c1ncc(-c2c(C)noc2C)cc1CN1C(=O)O[C@H](c2cc(C(F)(F)F)cc(C(F)(F)F)c2)[C@@H]1C)C1CCCCC1` [Example 58, (4S,5R)-5-[3,5-bis(trifluoromethyl)phenyl]-4-methyl-3-({[2-(ethyl)(cyclohexyl)amino]-5-(3,5-dimethylisoxazol-4-yl)pyridin-3-yl}methyl)-oxazoliclin-2-one], the concentration at 2 h in series [1] (adipose tissue, read-out: Drug Concentration Adipose Tissue) worked out at 10200 ng/g; in series [1] (blood, read-out: Drug Concentration Blood), 606 ng/mL; in series [1] (liver, read-out: Drug Concentration Liver Tissue) it was 415 ng/g. For the same compound, the “Distribution between blood, liver and adipose tissues (in words)” value in series [1] is “at low levels in blood and liver tissues, but at high levels in adipose tissues”. Besides, the “Relative Increase HDL-C (%) to VC (Vehicle)” value in the series on Blood HDL-C came to 47%. For the same compound, the IC50 on CETP [2] was 2.7 nM. Also, in the series with CETP [3], the “Relative Maximal Inhibition of CETP Activity to Pre-Administration (%)” value was 55%.
